Results: patent EP0029697A1, “Pharmaceutical compositions for the treatment of neoplastic diseases and process therefor” (Gosalvez, Mario Gosalvez, priority 1979, dated 1981)

Experiments:
[1] = test system: Hela cells; assay: Restoration of contact inhibition in colonies of Hela cells; format: cell-based, human
Protocol: Hela cells, a type of cell derived from human uterine tumor, were seeded in Eagle culture flasks at the concentration of 50 cells/cm^2. The cells were allowed to develop colonies during a period of 10 days with two changes of the medium on the second and sixth day. A tissue culture (minimum essential medium of Eagle with 10% calf serum) comprising amino acids, vitamins and glucose was employed.
2-Amino-2-thiazoline, obtained by treatment of the hydrochloride with a molar equivalent of sodium hydroxide, was added to the medium at varying concentrations on both the second day and the sixth day, after the initiation of the culture. A total of 3 flasks containing the cultured colonies were used for each concentration of 2-amino-2-thiazoline employed. On the tenth day, the cells were fixed in neutral formol and were stained with hematoxyline. A total of 500 colonies of the same size in each flask were counted at random and the percentage of colonies with contact inhibition (planar morphology) or without contact inhibition (pyrimidal or acuminated morphology) were noted.

[2] = Toxicity to humans; format: in vivo; conditions: doses up to at least 100 mg/kg
Protocol: 2-amino-2-thiazoline and 2-amino-2-thiazoline hydrochloride are also non-toxic to humans in doses up to at least 100 mg/kg. Therefore, the dosage administered can vary over a wide range, without concern that undesirable side-effects will result from large dosages.

[3] = test system: Leukemia 1210; assay: Effect on mouse tumors: survival time, leukemia 1210; format: in vivo; conditions: mice inoculated with leukemia 1210
Protocol: (§1) The effect of 2-amino-2-thiazoline on mouse tumors (le'ukemia 1210 and Lewis Lung carcinoma) was also tested. […] However, it is knwon that the cells associated with those tumors are extremely undifferentiated from normal cells so as to have lost all or nearly all of the cytoskeletal system of contractile microfilaments. Such cells would be expected to be insensitive to agents which induce reverse transformation. Leukemia 1210 and Lewis Lung carcinoma are transplantable tumors and, upon transplantation, they have lost the tissue specific membrane receptors which are the target of 2-amino-2-thiazoline.

[4] = test system: Lewis Lung carcinoma; assay: Effect on mouse tumors: survival time, Lewis Lung carcinoma; format: in vivo; conditions: mice inoculated with Lewis Lung carcinoma
Protocol: as §1

[5] = test system: bladder tumor receptor; assay: Preliminary study of biochemical affinity with tumor membrane receptors (bladder); format: binding
Excerpt: (§2) The preceding description is but illustrative of the practice of the invention and it is to be understood that other expedients may be employed by those skilled in the art without departure from the scope of the invention. Data on human tumors have been provided for bladder cancer because in a preliminary study of the biochemical affinity of 2-amino-2-thiazoline with tumor membrane receptors, the affinity with the bladder tumor receptor was very high. […] Therefore, it is claimed that 2-amino-2-thiazoline is an antitumor agent for mammalian cancer acting without toxicity by inducing reverse transformation.

[6] = test system: other tumor receptors of different tissue origin; assay: Preliminary study of biochemical affinity with tumor membrane receptors (other tissues); format: binding
Excerpt: as §2

[7] = test system: tumors of various origins; assay: Preliminary clinical trial in tumors of various origins; format: in vivo
Excerpt: as §2

[8] = test system: advanced metastastic bladder cancer; assay: Clinical trial in patients with advanced metastatic bladder cancer; format: in vivo, humans
Protocol: Clinical trials with 2-amino-2-thiazoline hydrochloride have been conducted on 9 patients suffering from advanced metastastic bladder cancer, not amenable to any other treatment.
Only patients with measurable and progressing bladder tumors and lung metastases the growth rate of which was measured weekly in X-ray plates for serveral weeks before beginning the treatment were admitted to the trial. The development of the bladder tumors was measured by cytos- copy after biopsy.
Each of the patients were intravenously administered 2-amino-2-thiazoline-hydrochloride, as an aqueous solution (25-75 mg/ml) at the dose of 1.5 mg/kg of body weight on a daily basis per 5 days, every three weeks (the first 5 patients), and at dose of 3 mg/kg daily per 5 days every three weeks (the following 4 patients).

[9] = 1 μMol, added on day 2 and day 6, read on day 10
[10] = 2 μMol, added on day 2 and day 6, read on day 10
[11] = 5 μMol, added on day 2 and day 6, read on day 10
[12] = 10 μMol, added on day 2 and day 6, read on day 10
[13] = 20 μMol, added on day 2 and day 6, read on day 10
[14] = patient 1, bladder carcinoma, lesion lung and bladder, total dose 2.5 gr, i.v. 1.5 mg/kg daily per 5 days every three weeks
[15] = patient 2, bladder carcinoma, lesion lung and bladder, total dose 3.2 gr, i.v. 1.5 mg/kg daily per 5 days every three weeks
[16] = patient 3, bladder carcinoma, lesion lung and bladder, total dose 2.8 gr, i.v. 1.5 mg/kg daily per 5 days every three weeks
[17] = patient 4, bladder carcinoma, lesion bladder, total dose 3.7 gr, i.v. 1.5 mg/kg daily per 5 days every three weeks
[18] = patient 5, bladder carcinoma, lesion lung and bladder, total dose 4.9 gr, i.v. 1.5 mg/kg daily per 5 days every three weeks
[19] = patient 6, bladder carcinoma, lesion bladder, total dose 12 gr, i.v. 3 mg/kg daily per 5 days every three weeks
[20] = patient 7, bladder carcinoma, lesion lung and bladder, total dose 9.6 gr, i.v. 3 mg/kg daily per 5 days every three weeks
[21] = patient 8, bladder carcinoma, lesion lung and bladder, total dose 11.8 gr, i.v. 3 mg/kg daily per 5 days every three weeks
[22] = patient 9, bladder carcinoma, lesion lung and bladder, total dose 10.8 gr, i.v. 3 mg/kg daily per 5 days every three weeks

Structure (SMILES): NC1=NCCS1 [2-Amino-2-thiazoline]
- Colonies without contact inhibition [1, 9]: 42%
- Total number of colonies [1, 9]: 100%
- Colonies with contact inhibition ([1]; 1 μMol, added on day 2 and day 6, read on day 10, 500 colonies per flask): 58%
- Colonies with contact inhibition [1, 10]: 59%
- Colonies without contact inhibition [1, 10]: 41%
- Total number of colonies [1, 10]: 100%
- Colonies with contact inhibition [1, 11]: 75%
- Colonies without contact inhibition [1, 11]: 25%
- Total number of colonies [1, 11]: 85%
- Colonies with contact inhibition [1, 12]: 86%
- Colonies without contact inhibition [1, 12]: 14%
- Total number of colonies [1, 12]: 75%
- Colonies with contact inhibition ([1]; 20 μMol (maximum dosage), added on day 2 and day 6, read on day 10): 100%
- Colonies without contact inhibition [1, 13]: 0%
- Total number of colonies [1, 13]: 45%
- Toxicity [2]: non-toxic
- increasing the survival time of the mice [3]: completely inactive
- increasing the survival time of the mice [4]: completely inactive
- biochemical affinity with tumor membrane receptors [5]: very high
- affinity for other tumor receptors [6]: shown affinity
- clinical response [7]: stabilization and minor remissions

Structure (SMILES): Cl.NC1=NCCS1 [2-Amino-2-thiazoline·HCl, 2-amino-2-thiazoline hydrochloride]
- Toxicity ([8]; all 9 patients, i.v. 1.5 or 3 mg/kg daily per 5 days every three weeks): None of the patients showed any toxicity
- objective responses (mor than 50% reduction of tumor size) ([8]; number of responders out of the 9 cases, combined area of lung metastasis and size of the cystoscopic lesion): 4
- Response [8, 14]: complete remission
- Toxicity [8, 14]: none
- Response [8, 15]: partial remission
- Toxicity [8, 15]: none
- Response [8, 16]: complete remission
- Toxicity [8, 16]: none
- Response [8, 17]: stabilization
- Toxicity [8, 17]: none
- Response [8, 18]: stabilization
- Toxicity [8, 18]: none
- Response [8, 19]: complete remission
- Toxicity [8, 19]: none
- Response [8, 20]: complete remission
- Toxicity [8, 20]: none
- Response [8, 21]: stabilization
- Toxicity [8, 21]: none
- Response [8, 22]: stabilization
- Toxicity [8, 22]: none
- Toxicity [2]: non-toxic
